# Laboratory results taken from patent publication US7318917B2, “Rapid assays for neurotransmitter transporters” (Vanderbilt University, priority 2002, dated 2008).
# Tests used:
# NET [1] = molecular target: T1, NET (Homo sapiens, UniProt P23975); experiment: ASP+ accumulation in HEK-hNET cells by confocal fluorescence microscopy (phase I binding, phase II transport); parameters: NET-mediated ASP accumulation after pre-incubation (endocytosis test): dose or concentration left out as unconfirmed; settings: for phase II (ASP+ transport) slope in the presence of the agent: 10 min pre-incubation with 10 μM cocaine or 30 μM NE; for phase II (ASP+ transport) slope in the presence of the agent / phase I (ASP+ binding) slope in the presence of the agent: then 2 μM ASP+, gramicidin 10 mg/mL 15 min before ASP+; for phase I (ASP+ binding) slope in the presence of the agent: 10 min pre-incubation with 10 μM desipramine, 10 μM cocaine or 30 μM NE
# NET [2] = format: cell-based; settings: 2 μM ASP+, 10 min pre-incubation with 10 μM desipramine
# Description: SCG neurons were dissociated by trituration followed by digestion with 0.25% trypsin and 0.3% collagenase. Non-neuronal cells were removed by preplating on uncoated, Falcon 60 mm plates. Neurons were cultured on poly-L-ornithine/laminin/poly D-lysine coated MatTek Dishes at a density of 3000-4000 cells/well in F-14^+ media containing 5% fetal calf serum, 2 mM L-glutamine, 60 ng/ml progesterone, 16 mg/ml putrescine, 400 ng/ml L-thyroxine, 38 ng/ml sodium selenite, 340 ng/ml tri-iodothyroxine, 5 mg/ml insulin, penicillin/streptomycin, 10 μM fluorodeoxyuridine and 20 ng/ml NGF. The neurons were maintained for 3-5 days in the presence of NGF before use.
# The interactions of ASP^+ with NET in primary tissue culture neurons were also examined.
# OCT = settings: 10 μM; cited from earlier work
# SERT [3] = molecular target: T2, SERT (Homo sapiens, UniProt P31645); experiment: ASP+ accumulation in hSERT-transfected HEK cells by confocal fluorescence microscopy; format: cell-based; settings: 2 mM ASP as printed in the FIG. 3 legend
# T2 construct: expressed in transfected cells
# Description: (§1) FIGS. 3A-3L. Monoamine transporters interact with ASP^+. Like HEK-hNET cells hDAT and hSERT transfected cells accumulate ASP^+. hNET (FIGS. 3A, 3B & 3C), hDAT (FIGS. 3D, 3E & 3F), hSERT (FIGS. 3G, 3H & 3I) and HEK-293 (FIGS. 3J, 3K & 3L) were exposed to 2 mM ASP for the times indicated in FIGS. 3J, 3K & 3L. The color gradient represented in FIG. 3J denotes the corresponding ASP^+ intensity values.
# (§2) HEK-hNET cells were plated on 35 mm glass bottom Petri-dishes (MatTek, Ashland, Mass.) coated with poly-L-lysine three days prior to experimentation. The culture medium was aspirated, cells were immediately mounted on a Zeiss 410 confocal microscope and the microscope was focused on the center of the monolayer of cells. During the confocal measurment cells remain without buffer for approximately thirty seconds. Background autoflourescence was established by collecting images for ten seconds prior to the addition of KRH (see Radiolabeled Transport),[…] Glucose, 10 μM ascorbic acid, 10 μM pargalyine, 10 μM tropolone (Sigma, Boulder CO), and ASP^+. […] The effects of photobleaching on ASP^+ accumulation were determined by examining the rate of ASP^+ fluorescence at various acquisition rates. […]
# (§3) The fluorescent images were processed using MetaMorph imaging software (Universal Imaging Corporation, Downington Pa.). […] All cells are subtracted against auto-fluorescence.
# SERT [4] = molecular target: T2, SERT; experiment: ASP+ uptake assay on FLEXstation, SERT-transfected HEK-293 cells; format: cell-based; settings: FIG. 10C
# Description: HEK-293 cells (American Type Culture Collection, Manassas, Va.) and HEK-293 cells stably transfected with SERT, NET, or DAT (Qian et al, 1997) were maintained in monolayer culture at 37° C., 5% CO2 in Dulbecco's modified Eagle's medium (DMEM) containing 10% fetal bovine serum, 2 mM glutamine, 100 units/ml penicillin, and 100 μg/ml streptomycin. Medium for the transfected lines was supplemented with G418 (250 μg/ml). Trypsin, glutamine, penicillin, streptomycin, G418, and phosphate-free DMEM were purchased from Life Technologies, Inc. or obtained from the Vanderbilt Media Core. For all transport assays, cells were plated on poly-D-lysine (0.1 mg/ml)-coated (0.1 mg/ml)-coated 96-well plates. […]
# To limit the time delay between the addition of ASP^+ and the measurement of accumulation of ASP^+ during the kinetic assays, plates were divided in half and assayed one half at a time. […] After incubation, ASP^+ was added to the first 6 columns in 20 μL aliquots at indicated concentrations and accumulated fluorescence measured and recorded over time by the FLEXStation ultilizing SoftMax Pro Software. Then, ASP^+ was added to the last 6 columns and fluorescence accumulation measured and recorded. […]
# Endpoint assays were conducted to evaluate the sensitivity of ASP^+ uptake to transporter antagonists. […] ASP^+ accumulation was measured after 10 minutes. […]
# NET [5] = molecular target: T1, NET; experiment: [3H]NE accumulation (radiolabeled transport assay) in hNET-transfected HEK-293 cells; format: cell-based; parameters: expressed in transfected cells; settings: Cheng-Prusoff correction, non-specific by 10 μM desipramine, N=5, mean±S.E.M., read-out: Ki, inhibition of [3H]NE accumulation
# Description: FIG. 1. MPP^+ and ASP^+ inhibit NE accumulation. [^3H]NE accumulation was measured in the hNET-transfected HEK-293 cells in the presence of increasing concentrations of ASP^+ or MPP^+ and normalized to similar data in the absence of an inhibitor. […]. The data were fit to NE transport remaining by the equation y=100/(1+([I]/IC50)^n), where [I] is the concentration of ASP^+ or MPP^+ and Ki values were determined using Cheng-Prusoff correction for substrate concentration. […] Values are represented as means±S.E.M., N=5.
# All accumulation studies were performed at room temperature (22° C.) unless otherwise indicated. HEK-hNET cells were plated on poly-L-lysine coated 24-well tissue culture plates at 10^5 cells per well three days prior to performing transport assays. The cells were at approximately 90% confluence on the third day. The medium was removed by aspiration. Cells were then pre-incubated for 10 min in Krebs-Ringer's-Hepes (KRH: in mM 130 NaCl, 1.3 KCl, 2.2 CaCl2, 1.2 MgSO4, 1.2 KH2PO4, 10 Hepes, and 1.8 g/L glucose, pH 7.4) medium with or without 10 μM desipramine. […]. Pargyline (10 μM) and ascorbic acid (10 μM) were added to prevent metabolism and oxidation of NE, respectively. The assay mixture was aspirated after 10 minutes and cells were washed three times with 4° C. […] Accumulated [^3H]NE was determined by liquid scintillation of 1% (w/v) sodium dodecylsulphate solubilized cells. […]
# NET [6] = molecular target: T1, NET; experiment: Fluorescence anisotropy of ASP+ in HEK-hNET cells; format: cell-based; parameters: expressed in transfected cells
# Description: To evaluate ASP^+ binding to the surface membranes, HEK-hNET cells were exposed to 2 μM ASP^+ with horizontal polarizer (FIG. 5C), with the polarizer rapidly switching to the vertical position. Cells were imaged with alternating polarizations for 3 minutes to measure light intensity in the horizontal (Ih) and vertical (Iv) positions in order to calculate the anisotropy ratio, r=(Iv−gIh)/(Iv+2 g Ih). The factor g was determined by using a half wave plate as described by Blackman et al. (1996). In this formulation, r =0.4 implies an immobile source (Smith et al., 1999). Surface anisotropy was measured from the cell circumference, taken as 1 pixel width. Cytosolic anisotropy was measured near the center of the cell, approximately 5 pixel widths from the membrane.
# Notice that rapid accumulation, which peaks at the cell edges (arrows), remains essentially constant between 3 and 180 sec., whereas brightness at the cell center (between arrows) gradually increases over this same period. Furthermore, accumulation at the center occurs at the same rate as phase II (compare phase II slope in FIG. 4 with center elevation in FIG. 5A). […] To test this interpretation the inventors measured the anisotropy of light from cell edges and cell centers.
# NET [7] = molecular target: T1, NET; format: cell-based; parameters: expressed in transfected cells; settings: FLEXstation, FIG. 10A
# Description: (§4) Medium for the transfected lines was supplemented with G418 (250 μg/ml). Trypsin, glutamine, penicillin, streptomycin, G418, and phosphate-free DMEM were purchased from Life Technologies, Inc. or obtained from the Vanderbilt Media Core. For all transport assays, cells were plated on poly-D-lysine (0.1 mg/ml)-coated (0.1 mg/ml)-coated 96-well plates. HEK cells were plated at 12,500 cells per well in 96 well plates, HEK-DAT cells were plated at 15,000 cells per well, HEK-NET cells were plated at 20,000 per well, and HEK-SERT cells were plated at 20,000 per well in a volume of 200 uL. HEK, HEK-DAT, and HEK-SERT cells were grown for 48 hours and HEK-NET cells were grown for 72 hours to a confluency of ˜90%.
# (§5) ASP^+ was obtained from Molecular Probes, Inc. and dissolved in KRH buffer to indicated concentrations. Trypan Blue was obtained from Sigma as a 0.4% solution and diluted to a final concentration of 30 uM in KRH buffer.
# (§6) To limit the time delay between the addition of ASP^+ and the measurement of accumulation of ASP^+ during the kinetic assays, plates were divided in half and assayed one half at a time. At assay, the medium was removed from wells in the first 6 columns by aspiration, and the cells were incubated with Trypan Blue in KRH buffer for 20 minutes at 37° C.in room air. Then, medium was removed from the wells in the last 6 columns and replaced with Trypan Blue in KRH buffer.
# DAT [8] = molecular target: T3, DAT (Homo sapiens, UniProt Q01959); experiment: ASP+ uptake assay on FLEXstation, DAT-transfected HEK-293 cells; format: cell-based; parameters: expressed in transfected cells; settings: FIG. 10B
# Description: as §4, §5, §6
# DAT [9] = molecular target: T3, DAT; experiment: ASP+ accumulation in hDAT-transfected HEK cells by confocal fluorescence microscopy; format: cell-based; parameters: expressed in transfected cells; host or cells: HEK-293; settings: 2 mM ASP as printed in the FIG. 3 legend
# Description: as §1, §2, §3
# T1 sequence (P23975 whole entry): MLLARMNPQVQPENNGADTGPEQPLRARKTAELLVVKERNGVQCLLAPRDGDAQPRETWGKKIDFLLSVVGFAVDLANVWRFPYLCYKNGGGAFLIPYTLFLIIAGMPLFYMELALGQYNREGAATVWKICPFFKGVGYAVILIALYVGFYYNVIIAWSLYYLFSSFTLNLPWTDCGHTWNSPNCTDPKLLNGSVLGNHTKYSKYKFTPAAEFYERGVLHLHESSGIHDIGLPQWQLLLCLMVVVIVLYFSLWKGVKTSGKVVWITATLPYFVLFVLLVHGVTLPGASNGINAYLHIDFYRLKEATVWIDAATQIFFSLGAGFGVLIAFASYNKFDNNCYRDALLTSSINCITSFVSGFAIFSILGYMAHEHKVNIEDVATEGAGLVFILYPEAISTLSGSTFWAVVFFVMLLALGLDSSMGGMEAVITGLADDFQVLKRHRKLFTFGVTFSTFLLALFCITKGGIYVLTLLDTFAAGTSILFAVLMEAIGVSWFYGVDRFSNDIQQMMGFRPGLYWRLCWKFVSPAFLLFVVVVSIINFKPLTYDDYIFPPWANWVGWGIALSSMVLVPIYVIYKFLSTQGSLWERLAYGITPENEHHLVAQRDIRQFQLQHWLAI
# T2 sequence (P31645 whole entry): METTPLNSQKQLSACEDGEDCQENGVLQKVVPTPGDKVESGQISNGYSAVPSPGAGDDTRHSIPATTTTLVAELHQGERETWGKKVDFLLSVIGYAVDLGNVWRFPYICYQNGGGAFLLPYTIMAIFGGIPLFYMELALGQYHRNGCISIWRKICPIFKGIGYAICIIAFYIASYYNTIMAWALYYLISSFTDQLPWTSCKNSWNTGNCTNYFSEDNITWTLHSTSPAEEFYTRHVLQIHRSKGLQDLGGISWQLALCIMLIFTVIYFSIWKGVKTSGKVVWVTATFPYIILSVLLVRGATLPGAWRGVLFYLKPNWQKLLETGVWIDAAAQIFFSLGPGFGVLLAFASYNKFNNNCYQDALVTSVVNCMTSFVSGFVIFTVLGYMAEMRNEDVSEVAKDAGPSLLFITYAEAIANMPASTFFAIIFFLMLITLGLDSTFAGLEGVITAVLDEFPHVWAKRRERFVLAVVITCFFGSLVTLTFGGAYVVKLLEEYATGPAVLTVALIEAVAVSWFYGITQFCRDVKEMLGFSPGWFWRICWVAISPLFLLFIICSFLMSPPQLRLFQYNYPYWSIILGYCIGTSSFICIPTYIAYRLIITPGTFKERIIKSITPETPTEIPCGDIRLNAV
# T3 sequence (Q01959 whole entry): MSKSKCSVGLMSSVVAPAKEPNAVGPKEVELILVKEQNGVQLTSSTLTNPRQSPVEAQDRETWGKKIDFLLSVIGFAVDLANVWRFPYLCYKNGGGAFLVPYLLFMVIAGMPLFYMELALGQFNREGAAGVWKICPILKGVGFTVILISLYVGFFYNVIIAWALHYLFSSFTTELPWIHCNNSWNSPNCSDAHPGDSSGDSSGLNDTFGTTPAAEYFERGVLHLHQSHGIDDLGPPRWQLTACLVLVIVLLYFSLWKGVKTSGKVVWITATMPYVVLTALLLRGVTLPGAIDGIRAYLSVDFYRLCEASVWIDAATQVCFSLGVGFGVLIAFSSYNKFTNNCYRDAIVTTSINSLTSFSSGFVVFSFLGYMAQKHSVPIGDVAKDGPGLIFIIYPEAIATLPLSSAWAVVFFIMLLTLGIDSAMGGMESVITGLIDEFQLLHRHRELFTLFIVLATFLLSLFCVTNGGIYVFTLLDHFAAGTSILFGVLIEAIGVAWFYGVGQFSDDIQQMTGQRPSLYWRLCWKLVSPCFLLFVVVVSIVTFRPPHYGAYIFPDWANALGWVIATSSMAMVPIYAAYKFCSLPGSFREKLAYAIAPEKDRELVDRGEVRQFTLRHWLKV
molecule,measurement,setting,value
Gramicidin,phase II (ASP+ transport) slope in the presence of the agent,NET [1],reduces the slope
same,phase I (ASP+ binding) slope in the presence of the agent,NET [1],reduces the slope
CNCCCN1c2ccccc2CCc2ccccc21 [desipramine],sensitivity of ASP+ accumulation in SCG cells to desipramine,NET [2],desipramine sensitive
same,effect on OCT activity,OCT,without affecting
"CN(C)c1ccc(C=Cc2cc[n+](C)cc2)cc1 [ASP^+, 4-(4-dimethylaminostyrl)-N-methylpyridinium]",ASP+ accumulation by hSERT transfected cells,SERT [3],accumulate
same,"concentration-response of ASP+ accumulation, SERT",SERT [4],concentration-dependent accumulation
same,Ki,NET [5],780 ± 77 nM
same,"fluorescence anisotropy, solution ASP+",NET [6],0.15
same,"concentration-response of ASP+ accumulation, NET",NET [7],concentration-dependent accumulation
same,"concentration-response of ASP+ accumulation, DAT",DAT [8],concentration-dependent accumulation
same,ASP+ accumulation by hDAT transfected cells,DAT [9],accumulate
same,ASP+ accumulation by cells expressing NET,"NET [1]; 800 nM ASP+, images at 0, 3 and 180 seconds",accumulate
same,Phase I n,NET [1]; exponent n of the phase I fit,1.15±0.30
same,Phase II n,NET [1]; exponent n of the phase II fit,1.51±0.35
same,Phase I Vmax,NET [1]; phase I (ASP+ binding) slope as a function of ASP+ concentration,10.5±0.94 AFUs/sec
same,potency of ASP+ accumulation for hNET,NET [1]; summary statement,sub-μM potency
OC[C@H]1O[C@@](CO)(O[C@H]2O[C@H](CO)[C@@H](O)[C@H](O)[C@H]2O)[C@@H](O)[C@@H]1O [sucrose],NET-mediated ASP accumulation after pre-incubation (endocytosis test),NET [1]; thirty-minute pre-incubation,unaffected
NC[C@H](O)c1ccc(O)c(O)c1 [NE],phase II (ASP+ transport) slope in the presence of the agent,NET [1],reduced
same,phase I (ASP+ binding) slope in the presence of the agent,NET [1],insignificant
same,effect on ASP+ accumulation in hNET-expressing HEK cells,NET [1]; summary statement,competed for
C[n+]1ccc(-c2ccccc2)cc1 [MPP^+],Ki,NET [5],600 ± 67 nM
